Experimental data taken from US20120034613A1, “Apparatus and Method for Testing Relationships Between Gene Expression and Physical Appearance of Skin” (NSE Products, Inc., priority 2010, published 2012).

System: EpidermFT™ Skin Model (EFT-400) full thickness skin cultures
Experiment: Affymetrix GeneChip HG U133 Plus 2.0 microarray global gene expression, agent-exposed vs untreated skin cultures
Type: cell-based, human
Details: Salicin 0.5% vs Untreated Control

With `OCc1ccccc1O[C@@H]1O[C@H](CO)[C@@H](O)[C@H](O)[C@H]1O` [Salicin, 2-(Hydroxymethyl)phenyl β-D-glucospyranoside] the “Fold change TMEM38B (222736_s_at)” value (24 hr treatment) was 2.316, the “Fold change TMEM39A (218615_s_at)” value (24 hr treatment) was 2.497 and the “Fold change TMEM39A (222690_s_at)” value (24 hr treatment) was 2.47. For the same compound, the “Fold change TMTC1 (226322_at)” value (24 hr treatment) was 2.647, the “Fold change TMTC1 (226931_at)” value (24 hr treatment) was 2.583 and the “Fold change TNC (216005_at)” value (24 hr treatment) was 2.719. The “Fold change TNFAIP6 (206026_s_at)” value (24 hr treatment) was 2.52, the “Fold change TNIP3 (220655_at)” value (24 hr treatment) was 2.654 and the “Fold change TRPA1 (217590_s_at)” value (24 hr treatment) was 2.602. For the same compound, the “Fold change TRPC4 (224220_x_at)” value (24 hr treatment) was 2.708, the “Fold change UBE2B (239163_at)” value (24 hr treatment) was 2.636 and the “Fold change UGCGL2 (218801_at)” value (24 hr treatment) was 2.4. The “Fold change UST (205139_s_at)” value (24 hr treatment) was 2.454, the “Fold change WIPI1 (203827_at)” value (24 hr treatment) was 2.744 and the “Fold change XPO1 (235927_at)” value (24 hr treatment) was 2.529. For the same compound, the “Fold change ZFAND5 (217649_at)” value (24 hr treatment) was 2.438, the “Fold change ZFP36L1 (211965_at)” value (24 hr treatment) was 2.705 and the “Fold change ZNF281 (228785_at)” value (24 hr treatment) was 2.627. The “Fold change ZNF331 (219228_at)” value (24 hr treatment) was 2.442, the “Fold change ZNF697 (227080_at)” value (24 hr treatment) was 2.599 and the “Fold change ABCD3 (202850_at)” value (24 hr, direction down) was 2.077. For the same compound, the “Fold change ABCG4 (207593_at)” value (24 hr, direction down) was 2.004, the “Fold change ACACA (212186_at)” value (24 hr, direction down) was 2.091 and the “Fold change ACAD9 (224160_s_at)” value (24 hr, direction down) was 2.034. The “Fold change ACOX3 (204241_at)” value (24 hr, direction down) was 2.001, the “Fold change ADAMTSL4 (226071_at)” value (24 hr, direction down) was 2.137 and the “Fold change ADARB1 (203865_s_at)” value (24 hr, direction down) was 2.089. For the same compound, the “Fold change AHNAK (211986_at)” value (24 hr, direction down) was 2.023, the “Fold change AIF1L (223075_s_at)” value (24 hr, direction down) was 2.169 and the “Fold change AK1 (202587_s_at)” value (24 hr, direction down) was 2.078. The “Fold change AK3L1 /// AK3L2 (204347_at)” value (24 hr, direction down) was 2.026, the “Fold change ALDH5A1 (203609_s_at)” value (24 hr, direction down) was 2.111 and the “Fold change ALOX12 (207206_s_at)” value (24 hr, direction down) was 2.124. The “Fold change AMACR (209426_s_at)” value (24 hr, direction down) was 2.021, the “Fold change AMOTL2 (203002_at)” value (24 hr, direction down) was 2.089 and the “Fold change ANK3 (207950_s_at)” value (24 hr, direction down) was 2.049. The “Fold change APPL2 (218218_at)” value (24 hr, direction down) was 2.013, the “Fold change AQP3 (203747_at)” value (24 hr, direction down) was 2.032 and the “Fold change ARHGAP27 (225618_at)” value (24 hr, direction down) was 2.077. The “Fold change ARL17 /// ARL17P1 (1555964_at)” value (24 hr, direction down) was 2.016, the “Fold change ARPC1A (200950_at)” value (24 hr, direction down) was 2.042 and the “Fold change ASAP3 (222236_s_at)” value (24 hr, direction down) was 2.079. For the same compound, the “Fold change ATP2B4 (212136_at)” value (24 hr, direction down) was 2.118, the “Fold change ATXN3 (205416_s_at)” value (24 hr, direction down) was 2.164 and the “Fold change BAIAP2 (205293_x_at)” value (24 hr, direction down) was 2.03. For the same compound, the “Fold change BCL11A (1559078_at)” value (24 hr, direction down) was 2.151, the “Fold change BCL11B (222895_s_at)” value (24 hr, direction down) was 2.021 and the “Fold change BICD2 (1553021_s_at)” value (24 hr, direction down) was 2.09. For the same compound, the “Fold change BLCAP (201032_at)” value (24 hr, direction down) was 2.077, the “Fold change C1orf46 (216718_at)” value (24 hr, direction down) was 2.083 and the “Fold change C1orf71 (225551_at)” value (24 hr, direction down) was 2.006. The “Fold change C1orf97 (224443_at)” value (24 hr, direction down) was 2.02, the “Fold change C2orf7 (223312_at)” value (24 hr, direction down) was 2.047 and the “Fold change C4orf3 (224605_at)” value (24 hr, direction down) was 2.002. The “Fold change C6orf105 (215100_at)” value (24 hr, direction down) was 2.121, the “Fold change C12orf29 (228378_at)” value (24 hr, direction down) was 2.164 and the “Fold change C15orf52 (227272_at)” value (24 hr, direction down) was 2.042. The “Fold change C17orf67 (236863_at)” value (24 hr, direction down) was 2.03, the “Fold change C20orf177 (225313_at)” value (24 hr, direction down) was 2.134 and the “Fold change CALM1 /// CALM2 /// CALM3 (200653_s_at)” value (24 hr, direction down) was 2.056. For the same compound, the “Fold change CALM1 /// CALM2 /// CALM3 (209563_x_at)” value (24 hr, direction down) was 2.029, the “Fold change CAT (211922_s_at)” value (24 hr, direction down) was 2.095 and the “Fold change CENPT (218148_at)” value (24 hr, direction down) was 2.074. The “Fold change CEP76 (52285_f_at)” value (24 hr, direction down) was 2.004, the “Fold change CERK (218421_at)” value (24 hr, direction down) was 2.138 and the “Fold change CKB (200884_at)” value (24 hr, direction down) was 2.055. The “Fold change CLCN5 (232127_at)” value (24 hr, direction down) was 2.126, the “Fold change CLDN7 (202790_at)” value (24 hr, direction down) was 2.043 and the “Fold change CLIP1 (1558924_s_at)” value (24 hr, direction down) was 2.123. The “Fold change CLN8 (229958_at)” value (24 hr, direction down) was 2.102, the “Fold change CNDP2 (217752_s_at)” value (24 hr, direction down) was 2.002 and the “Fold change CNTN1 (211203_s_at)” value (24 hr, direction down) was 2.105. For the same compound, the “Fold change CSNK2A2 (203575_at)” value (24 hr, direction down) was 2.095, the “Fold change CTAGE4 (215549_x_at)” value (24 hr, direction down) was 2.108 and the “Fold change CXCL12 (203666_at)” value (24 hr, direction down) was 2.074. The “Fold change CYB5R1 (202263_at)” value (24 hr, direction down) was 2.119, the “Fold change CYCS (244546_at)” value (24 hr, direction down) was 2.168 and the “Fold change DBI (211070_x_at)” value (24 hr, direction down) was 2.056. For the same compound, the “Fold change DDR1 (1007_s_at)” value (24 hr, direction down) was 2.104, the “Fold change DDX50 (1568815_a_at)” value (24 hr, direction down) was 2.115 and the “Fold change DHRS4 /// DHRS4L2 (218021_at)” value (24 hr, direction down) was 2.062. For the same compound, the “Fold change DMD (203881_s_at)” value (24 hr, direction down) was 2.165, the “Fold change DOPEY2 (205248_at)” value (24 hr, direction down) was 2.103 and the “Fold change ELOVL3 (234513_at)” value (24 hr, direction down) was 2.048. For the same compound, the “Fold change EPCAM (201839_s_at)” value (24 hr, direction down) was 2.093, the “Fold change EPHB4 (202894_at)” value (24 hr, direction down) was 2.087 and the “Fold change EPHB6 (204718_at)” value (24 hr, direction down) was 2.036. The “Fold change ERI2 (213365_at)” value (24 hr, direction down) was 2.167, the “Fold change F2RL1 (206429_at)” value (24 hr, direction down) was 2.099 and the “Fold change FAM33A (225684_at)” value (24 hr, direction down) was 2.022. The “Fold change FAR1 (224865_at)” value (24 hr, direction down) was 2.117, the “Fold change FBXO3 (229955_at)” value (24 hr, direction down) was 2.107 and the “Fold change FBXO3 (238686_at)” value (24 hr, direction down) was 2.147. For the same compound, the “Fold change FBXO9 (212991_at)” value (24 hr, direction down) was 2.083, the “Fold change FBXO9 (1559094_at)” value (24 hr, direction down) was 2.099 and the “Fold change FIGNL1 (222843_at)” value (24 hr, direction down) was 2.071. For the same compound, the “Fold change FKBP1B (206857_s_at)” value (24 hr, direction down) was 2.113, the “Fold change FKBPL (219187_at)” value (24 hr, direction down) was 2.09 and the “Fold change FRAG1 (41858_at)” value (24 hr, direction down) was 2.049. For the same compound, the “Fold change FUCA1 (202838_at)” value (24 hr, direction down) was 2.147, the “Fold change FUT2 (210608_s_at)” value (24 hr, direction down) was 2.05 and the “Fold change GAB1 (225998_at)” value (24 hr, direction down) was 2.071. For the same compound, the “Fold change GAS7 (202192_s_at)” value (24 hr, direction down) was 2.035, the “Fold change GDAP1 (226269_at)” value (24 hr, direction down) was 2.153 and the “Fold change GNG4 (205184_at)” value (24 hr, direction down) was 2.054. For the same compound, the “Fold change GPR1 (214605_x_at)” value (24 hr, direction down) was 2.109, the “Fold change GPR137B (204137_at)” value (24 hr, direction down) was 2.046 and the “Fold change GSN (200696_s_at)” value (24 hr, direction down) was 2.089. For the same compound, the “Fold change HES5 (239230_at)” value (24 hr, direction down) was 2.078, the “Fold change HIGD1A (217845_x_at)” value (24 hr, direction down) was 2.017 and the “Fold change HN1 (222396_at)” value (24 hr, direction down) was 2.105. For the same compound, the “Fold change HN1L (212115_at)” value (24 hr, direction down) was 2.003, the “Fold change HSDL2 (209512_at)” value (24 hr, direction down) was 2.126 and the “Fold change ID2 (201565_s_at)” value (24 hr, direction down) was 2.158.
